In the supplement of paper PMC10307832:

Columns and labels:
Assay in all cases: relative viability (nuclei count vs DMSO), 5 days (fraction); higher = more cells survive
FH535 = compound: CC1=C(C=CC(=C1)[N+](=O)[O-])NS(=O)(=O)C2=C(C=CC(=C2)Cl)Cl [FH535]
In short: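 Viability is treated-well nuclei as a fraction of vehicle-well nuclei, reported as the median across plates. Before counting, lung cancer cell lines were kept overnight at 37 °C in 1536-well plates, pinned with five √10-spaced library-drug doses on vehicle-anchored plates, and left 5 days without medium change, then fixed, permeabilised and Hoechst-stained in one step, imaged at 4× and counted by MetaXpress. A plate passed only if control CV was below 25% and at least one doubling occurred.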

FH535 + Crizotinib = compound: CC1=C(C=CC(=C1)[N+](=O)[O-])NS(=O)(=O)C2=C(C=CC(=C2)Cl)Cl [FH535] + C[C@@H](Oc1cc(-c2cnn(C3CCNCC3)c2)cnc1N)c1c(Cl)ccc(F)c1Cl [Crizotinib] (partner 1 µM)
In short: (§1)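 Nuclei were stained with Hoechst during a one-step fixation (final 0.05% Triton X-100, 1% formaldehyde, 1 ug/ml Hoechst) carried out 5 days after dosing, then counted on 4× images. The cells, lung cancer lines in 1536-well plates, had been dosed by pin tool the day after seeding with one drug alone or a fixed anchor-drug dose plus five library-drug doses (not always all listed) in √10 steps. Relative viability is the nuclei count in treated wells divided by that in vehicle wells, and each value is the median of duplicate plates.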

FH535 + Foretinib = compound: CC1=C(C=CC(=C1)[N+](=O)[O-])NS(=O)(=O)C2=C(C=CC(=C2)Cl)Cl [FH535] + COc1cc2c(Oc3ccc(NC(=O)C4(C(=O)Nc5ccc(F)cc5)CC4)cc3F)ccnc2cc1OCCCN1CCOCC1 [Foretinib] (partner 0.25 µM)
In short: as §1

FH535 + Linsitinib = compound: CC1=C(C=CC(=C1)[N+](=O)[O-])NS(=O)(=O)C2=C(C=CC(=C2)Cl)Cl [FH535] + C[C@]1(O)C[C@@H](c2nc(-c3ccc4ccc(-c5ccccc5)nc4c3)c3c(N)nccn32)C1 [Linsitinib] (partner 1 µM)
In short: as §1

FH535 + Phenformin = compound: CC1=C(C=CC(=C1)[N+](=O)[O-])NS(=O)(=O)C2=C(C=CC(=C2)Cl)Cl [FH535] + N=C(N)NC(=N)NCCc1ccccc1 [Phenformin] (partner 250 µM)
In short: as §1

Row | Cell Line | relative viability (FH535; 0.04 µM) | relative viability (FH535; 0.1265 µM) | relative viability (FH535; 0.4 µM) | relative viability (FH535; 1.265 µM) | relative viability (FH535 + Crizotinib; first compound 0.04 µM) | relative viability (FH535 + Crizotinib; first compound 0.1265 µM) | relative viability (FH535 + Crizotinib; first compound 0.4 µM) | relative viability (FH535 + Crizotinib; first compound 1.265 µM) | relative viability (FH535 + Foretinib; first compound 0.04 µM) | relative viability (FH535 + Foretinib; first compound 0.1265 µM) | relative viability (FH535 + Foretinib; first compound 0.4 µM) | relative viability (FH535 + Foretinib; first compound 1.265 µM) | relative viability (FH535 + Linsitinib; first compound 0.04 µM) | relative viability (FH535 + Linsitinib; first compound 0.1265 µM) | relative viability (FH535 + Linsitinib; first compound 0.4 µM) | relative viability (FH535 + Linsitinib; first compound 1.265 µM) | relative viability (FH535 + Phenformin; first compound 0.04 µM) | relative viability (FH535 + Phenformin; first compound 0.1265 µM) | relative viability (FH535 + Phenformin; first compound 0.4 µM) | relative viability (FH535 + Phenformin; first compound 1.265 µM)
1 | NCI-H650 | 0.82 | 0.913 | 0.846 | 0.687 | 0.694 | 0.854 | 0.738 | 0.567 | 0.927 | 1.05 | 1.01 | 0.788 | 0.687 | 1.09 | 0.832 | 0.603 | 0.411 | 0.417 | 0.388 | 0.289
2 | NCI-H2009 | 0.964 | 1.01 | 0.92 | 0.701 | 1.1 | 1.06 | 0.903 | 0.677 | 1.27 | 1.22 | 1.18 | 0.929 | 1.2 | 1.09 | 1.13 | 1.05 | 0.486 | 0.447 | 0.402 | 0.179
3 | EPLC-272H | 0.838 | 0.934 | 0.796 | 0.774 | 0.943 | 1.07 | 0.868 | 0.838 | 0.586 | 0.852 | 0.72 | 0.562 | 1.04 | 1.17 | 1.03 | 1.05 | 0.242 | 0.352 | 0.234 | 0.159
4 | NCI-H596 | 0.926 | 0.865 | 0.975 | 0.908 | 1.02 | 1.02 | 1.08 | 0.929 | 0.833 | 0.899 | 0.852 | 0.819 | 1.1 | 1.13 | 1.1 | 1.01 | 0.794 | 0.623 | 0.614 | 0.69
5 | NCI-H3122 | 0.933 | 0.995 | 0.978 | 0.885 | 0.261 | 0.282 | 0.253 | 0.285 | 0.888 | 0.901 | 0.924 | 0.931 | 0.989 | 1.07 | 0.977 | 0.895 | 0.374 | 0.344 | 0.286 | 0.164
6 | NCI-H2085 | 0.96 | 0.967 | 0.97 | 0.852 | 1.03 | 0.969 | 0.705 | 0.695 | 1.01 | 0.869 | 0.89 | 0.59 | 0.858 | 0.924 | 0.892 | 0.724 | 0.687 | 0.65 | 0.585 | 0.451
7 | NCI-H441 | 0.929 | 1.14 | 1.14 | 0.84 | 0.603 | 0.797 | 0.768 | 0.628 | 0.959 | 0.97 | 1.08 | 0.801 | 0.573 | 0.447 | 0.521 | 0.615 | 0.316 | 0.829 | 0.709 | 0.512
8 | NCI-H2170 | 0.904 | 1.02 | 0.963 | 0.858 | 1.14 | 1.3 | 1.19 | 1.04 | 1.06 | 0.96 | 0.988 | 0.891 | – | – | – | – | 0.394 | 0.416 | 0.319 | 0.28
9 | LC-2-ad | 0.894 | 0.936 | 0.857 | 0.71 | 0.462 | 0.477 | 0.458 | 0.452 | 0.807 | 0.981 | 0.872 | 0.853 | 0.846 | 0.829 | 0.771 | 0.502 | 0.482 | 0.58 | 0.425 | 0.368
10 | SK-MES-1 | 0.986 | 1.01 | 0.963 | 0.776 | 0.975 | 1.01 | 0.973 | 0.855 | 0.918 | 1.05 | 0.963 | 0.814 | 1.04 | 1.15 | 1.09 | 0.948 | 0.71 | 0.614 | 0.553 | 0.385
11 | NCI-H358 | 0.853 | 1.11 | 0.814 | 0.674 | 0.482 | 0.576 | 0.582 | 0.542 | 0.647 | 0.727 | 0.63 | 0.481 | 0.696 | 0.822 | 0.791 | 0.552 | 0.256 | 0.327 | 0.265 | 0.153
12 | A-427 | 0.908 | 1.05 | 0.926 | 0.819 | 0.929 | 0.908 | 0.784 | 0.721 | 1.06 | 0.965 | 1.04 | 0.977 | 1.13 | 1.18 | 1.07 | 0.981 | 0.272 | 0.331 | 0.215 | 0.135
13 | NCI-H1666 | 0.986 | 0.976 | 0.954 | 0.93 | 1.06 | 0.979 | 0.956 | 0.871 | 0.919 | 0.975 | 0.913 | 0.8 | 0.88 | 0.78 | 0.753 | 0.55 | 0.582 | 0.513 | 0.476 | 0.373
14 | LOU-NH91 | 0.936 | 1.07 | 0.742 | 0.472 | 0.622 | 0.721 | 0.698 | 0.477 | 0.99 | 0.952 | 0.91 | 0.474 | 0.861 | 1.02 | 0.932 | 0.506 | 0.554 | 0.471 | 0.424 | 0.392
15 | ABC-1 | 1 | 0.858 | 0.812 | 0.774 | 1.19 | 0.866 | 1.2 | 0.618 | 1.04 | 0.849 | 0.969 | 0.907 | 0.963 | 0.836 | 0.864 | 0.788 | 0.263 | 0.209 | 0.184 | 0.179
16 | NCI-H1651 | 0.92 | 0.988 | 0.964 | 0.727 | 0.856 | 0.81 | 0.853 | 0.611 | 0.888 | 0.856 | 0.697 | 0.584 | 0.999 | 0.949 | 0.942 | 0.731 | 0.318 | 0.319 | 0.221 | 0.188
17 | 201T | 0.976 | 1 | 0.884 | 0.862 | 0.99 | 1.09 | 0.975 | 0.875 | 0.987 | 1.15 | 1.11 | 1.02 | 1.05 | 1.03 | 0.95 | 0.964 | 0.402 | 0.45 | 0.397 | 0.321
18 | NCI-H322M | 0.92 | 0.93 | 0.937 | 0.761 | 0.819 | 0.906 | 1.03 | 1.04 | 0.966 | 1 | 0.961 | 0.882 | 0.982 | 1.07 | 1 | 0.847 | 0.813 | 0.844 | 0.707 | 0.601
19 | A549 | 0.878 | 0.887 | 0.928 | 0.789 | 0.749 | 0.783 | 0.631 | 0.41 | 0.947 | 0.981 | 0.853 | 0.722 | 0.497 | 0.627 | 0.641 | 0.568 | 0.175 | 0.159 | 0.116 | 0.043
20 | NCI-H838 | 0.962 | 0.96 | 0.851 | 0.777 | 0.959 | 0.962 | 0.797 | 0.654 | 1.03 | 1.11 | 0.933 | 0.823 | 0.987 | 1.03 | 0.938 | 0.908 | 0.512 | 0.722 | 0.445 | 0.309
21 | HCC-44 | 0.994 | 0.943 | 0.836 | 0.747 | 0.908 | 0.755 | 0.75 | 0.682 | – | – | – | – | 0.704 | 0.647 | 0.705 | 0.469 | 0.242 | 0.191 | 0.125 | 0.176
22 | ChaGo-K-1 | 0.91 | 1.06 | 0.887 | 0.775 | 1.05 | 1.19 | 1.09 | 0.708 | 0.916 | 1.05 | 0.967 | 0.722 | – | – | – | – | 0.462 | 0.554 | 0.428 | 0.384
23 | NCI-H1703 | 0.958 | 0.848 | 0.929 | 0.768 | 0.922 | 0.63 | 0.589 | 0.408 | 0.416 | – | 0.324 | 0.344 | 1.02 | 0.635 | 0.561 | 0.564 | – | – | – | –
24 | NCI-H1793 | 0.825 | 0.747 | 0.762 | 0.642 | – | – | – | – | 0.347 | 0.775 | 0.798 | 0.458 | 0.785 | 0.917 | 0.867 | 0.778 | 0.39 | 0.256 | 0.278 | 0.211
25 | NCI-H1650 | 0.893 | 0.966 | 0.881 | 0.717 | 1.01 | 1.09 | 1.15 | 0.839 | 0.966 | 1.28 | 1.01 | 0.825 | – | – | – | – | 0.365 | 0.405 | 0.33 | 0.201
26 | NCI-H1395 | 0.683 | 0.929 | 0.909 | 0.62 | – | – | – | – | 0.952 | 0.967 | 0.868 | 0.831 | 0.877 | 1.41 | 1.07 | 0.862 | 0.443 | 0.448 | 0.396 | 0.348
27 | NCI-H1792 | 0.874 | 0.958 | 0.789 | 0.62 | 0.967 | 0.963 | 0.907 | 0.632 | – | – | – | – | 0.54 | 0.601 | 0.527 | 0.396 | 0.216 | 0.358 | 0.267 | 0.235
28 | IA-LM | 0.963 | 0.864 | 0.868 | 0.713 | 0.867 | 0.771 | 0.645 | 0.633 | 1.21 | 1.21 | 1.08 | 0.701 | 0.624 | 0.525 | 0.687 | 0.45 | – | – | – | –
